{"source": "patent US20260041677A1", "about": "“COMPOSITIONS AND METHODS FOR TREATING ADENOID CYSTIC CARCINOMA” (ELEVAR THERAPEUTICS, INC., priority 2022, published 2026)", "experiment": "Phase 2 study of rivoceranib in R/M ACC: safety, adverse events, dose modifications", "assay_type": "in vivo, human", "description": "Overall design: An ongoing Phase 2, multicenter, open-label, single-arm study was designed to evaluate the efficacy and safety of rivoceranib in patients with recurrent or metastatic (R/M) adenoid cystic carcinoma (ACC) of all anatomic sites of origin. The study was composed of an initial screening phase (up to 28 days), a treatment phase, and a follow-up phase.\nObjectives: Primary objectives were to evaluate safety & tolerability, efficacy by objective response rate (ORR), best overall response (BOR), time to response, duration of response, disease control rate, and duration of disease control. Secondary objectives were to evaluate efficacy as measured by overall survival, progression-free survival and event-free survival. The primary efficacy endpoint was the ORR, defined as the proportion of patients who achieved confirmed complete response (CR) or partial response (PR) per Response Evaluation Criteria in Solid Tumors (RECIST) Version 1.1 (V1.1). The secondary efficacy endpoints were duration of response (DoR) assessed by the investigator and a blinded independent review committee (BIRC), progression-free survival (PFS) assessed at 6 months, 12 months, and 2 years by investigator and BIRC, Time to Progression (TTP) assessed by investigator and BIRC, and overall survival (OS) assessed at 1 and 2 years. Exploratory efficacy endpoints include ORR per CHOI response criteria (based on the journal article, Choi et al., Correlation of computed tomography and positron emission tomography in patients with metastatic gastrointestinal stromal tumor treated at a single institution with imatinib mesylate: proposal of new computed tomography response criteria. J Clin Oncol. 2007; 25(13): 1753-1759) by a blinded independent review […] (BIRC) and disease control rate (DCR) per RECIST V1.1 by Investigator and BIRC. Except for CHOI response criteria, all response endpoints were assessed per RECIST V1.1 by Investigator and BIRC.\nDose determination: Enrolled patients initiated treatment with rivoceranib 700 mg daily (QD). Up to 3 levels of dose reduction for toxicity were permitted: 500 mg QD, 300 mg QD and 200 mg QD. Patients received treatment until disease progression, unacceptable toxicity, death or withdrawal of consent to treatment. Patients deriving benefit were permitted to continue treatment with rivoceranib beyond disease progression. After discontinuation of study treatment, patients were to be followed for survival (and initiation of new anticancer therapy) for 24 months. Patients were dosed with rivoceranib 700 mg orally daily (QD) in 28-day cycles. Treatment with rivoceranib was continued until disease progression, unacceptable toxicity, death, or withdrawal of consent.\nThe median duration of treatment was 31.07 weeks (range: 0.6 to 103.0). The median time-averaged daily dose was 397.6 mg/day, which was […] of initial daily dose of 700 mg/day. Overall, 85% of patients required 1 or more dose modifications (reduction or interruption) due to an adverse event (AE).\nSafety Summary: Rivoceranib was generally well-tolerated with the toxicity profile as expected based on other studies of rivoceranib in patients with solid tumors, and consistent with the class effect of angiogenesis inhibitors. […] Four patients experienced a fatal adverse event. These events consisted of epistaxis in two patients and acute respiratory failure in two patients. […] The median time to each of these dose reductions was 4.00, 7.71 and 16.00 weeks, respectively. The median duration of treatment was 31.1 weeks (range, 0.6-103.0). The median actual dose intensity was 421.0 mg/day. The relative dose intensity was 60.1%. Overall, 68 patients required one or more dose modifications (reduction or interruption) due to an adverse event. The median time to first dose reduction was 4.1 weeks (range, 1-40).", "data": [{"smiles": "N#CC1(c2ccc(NC(=O)c3cccnc3NCc3ccncc3)cc2)CCCC1", "note": "[Rivoceranib, N-[4-(1-cyanocyclopentyl)phenyl]-2-{[(pyridin-4-yl)methyl]amino}pyridine-3-carboxamide]", "values": [{"measurement": "fatal adverse event: acute respiratory failure", "setting": "N = 80, 700 mg QD start", "result": "two"}, {"measurement": "fatal adverse event: epistaxis", "setting": "N = 80, 700 mg QD start", "result": "two"}, {"measurement": "patients who experienced a fatal adverse event", "setting": "N = 80, 700 mg QD start", "result": "Four"}, {"measurement": "Median time to dose reduction to 300 mg QD", "setting": "human, in vivo", "result": 7.71, "unit": "weeks"}, {"measurement": "Median time to dose reduction to 500 mg QD", "setting": "human, in vivo", "result": 4.00, "unit": "weeks"}, {"measurement": "Number of Subjects with Dose Interruption (n, %)", "setting": "human, in vivo", "result": "(83.8) %"}, {"measurement": "Number of Subjects with Dose Modification (n, %)", "setting": "human, in vivo", "result": "(88.8) %"}, {"measurement": "Treatment interruptions due to adverse events, patients", "setting": "human, in vivo", "result": 86.3, "unit": "%"}, {"measurement": "Treatment reductions due to adverse events, patients", "setting": "human, in vivo", "result": 48.8, "unit": "%"}, {"measurement": "median time to first dose reduction", "setting": "human, in vivo", "result": 4.1, "unit": "weeks"}, {"measurement": "patients dose reduced from 700 mg QD to 500 mg QD", "setting": "human, in vivo", "result": 80.0, "unit": "%"}, {"measurement": "patients dose reduced to 200 mg QD", "setting": "human, in vivo", "result": 32.5, "unit": "%"}, {"measurement": "patients dose reduced to 300 mg QD", "setting": "human, in vivo", "result": 51.3, "unit": "%"}]}]}
